In brackets after ≈: the same amount, converted by molar mass. Activity calls are given as the source filed them. The rule behind the calls is not given here.
Assays:
Bacillus subtilis = experiment: Antibacterial activity against Bacillus subtilis; format: functional
TCT1 = experiment: (§1) Cytotoxicity against human TCT1 cells after 48 hrs by calcein-AM dye based fluorescence assay; format: functional, cell-based
[1] = as §1; format: functional, cell-based; conditions: TCT1, 48 h

| Molecule | MIC (Bacillus subtilis) | Activity (TCT1) | Cytotoxicity (TCT1) | IC50 [1] |
| --- | --- | --- | --- | --- |
| CCC[C@H]1O[C@H](C(O)C(N)=O)C[C@]23O[C@]12C(=O)c1c(O)cc(OC)cc1C3=O (stereo partly drawn) | 7 µg/mL (≈ 17.9 µM) | inactive |  |  |
| CCC[C@H]1O[C@H](CC(N)=O)C[C@]23O[C@]12C(=O)c1c(O)cc(OC)cc1C3=O | 7 µg/mL (≈ 18.6 µM) | inactive |  |  |
| CCC[C@H]1O[C@H](CC(N)=O)C[C@]2(S[C@]34C[C@@H](CC(N)=O)O[C@H](CCC)[C@]3(O)C(=O)c3c(O)cc(OC)cc3C4=O)C(=O)c3cc(OC)cc(O)c3C(=O)[C@@]12O | inactive |  | Active |  |
| COC(=O)CC1CC2(SC34CC(CC(=O)OC)OC(C)C3(O)C(=O)c3c(O)cccc3C4=O)C(=O)c3cccc(O)c3C(=O)C2(O)C(C)O1 (stereo not drawn) |  |  |  | 6.4 µM |
| COC(=O)CC1CC2(SC34CC(CCO)OC(C)C3(O)C(=O)c3c(O)cccc3C4=O)C(=O)c3cccc(O)c3C(=O)C2(O)C(C)O1 (stereo not drawn) |  |  |  | 6.4 µM |
| CC(=O)O[C@H]1C(=O)[C@@]2(C)[C@H]([C@H](OC(=O)c3ccccc3)[C@]3(O)C[C@H](OC(=O)[C@H](O)[C@@H](NC(=O)c4ccccc4)c4ccccc4)C(C)=C1C3(C)C)[C@]1(OC(C)=O)CO[C@@H]1C[C@@H]2O [PACLITAXEL] |  |  |  | 0.0025 µM |
| GENTAMICIN | 0.125 µg/mL |  |  |  |
| CCC[C@H]1O[C@H](CC(N)=O)C[C@]2(O)C(=O)c3cc(OC)cc(O)c3C(=O)[C@@]12O | 28 µg/mL (≈ 71.2 µM) | inactive |  |  |
| CC[C@H]1OC(=O)[C@H](C)[C@@H](O[C@H]2C[C@@](C)(OC)[C@@H](O)[C@H](C)O2)[C@H](C)[C@@H](O[C@@H]2O[C@H](C)C[C@H](N(C)C)[C@H]2O)[C@](C)(O)C[C@@H](C)C(=O)[C@H](C)[C@@H](O)[C@]1(C)O [ERYTHROMYCIN] | 0.125 µg/mL (≈ 0.17 µM) |  |  |  |

Reference: ChEMBL document CHEMBL3352805, “Structure and Stereochemical Determination of Hypogeamicins from a Cave-Derived Actinomycete” (J Nat Prod, 2014)
